In patent US7501422B2, “Prolinamide-tetrazole derivatives as NK3 receptor antagonists” (Hoffmann-La Roche Inc., priority 2007, dated 2009):

Target: T1, NK3 tachykinin receptor (Homo sapiens, UniProt P29371)
T1 sequence (P29371 1-465): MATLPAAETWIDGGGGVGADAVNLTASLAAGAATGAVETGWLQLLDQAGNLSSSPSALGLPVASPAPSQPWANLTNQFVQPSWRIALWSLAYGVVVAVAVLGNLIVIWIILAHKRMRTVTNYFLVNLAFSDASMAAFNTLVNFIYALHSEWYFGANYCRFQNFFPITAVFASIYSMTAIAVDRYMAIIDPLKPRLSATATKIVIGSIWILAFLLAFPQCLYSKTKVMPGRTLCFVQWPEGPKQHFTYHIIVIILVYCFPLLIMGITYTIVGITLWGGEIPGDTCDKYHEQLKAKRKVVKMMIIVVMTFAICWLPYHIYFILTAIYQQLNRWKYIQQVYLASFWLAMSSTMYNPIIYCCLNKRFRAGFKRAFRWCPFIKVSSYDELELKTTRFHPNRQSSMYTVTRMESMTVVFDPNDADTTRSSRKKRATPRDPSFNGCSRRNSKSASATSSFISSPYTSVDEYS
Experiment: not given
Conditions: phase II trial; negative symptoms (depression, anhedonia, social isolation, memory and attention deficits); cited from earlier work

Row | SMILES | activity in treatment of negative symptoms of schizophrenia
1 | CC(=O)N(C)C1(c2ccccc2)CCN(CCC[C@]2(c3ccc(Cl)c(Cl)c3)CCCN(C(=O)c3ccccc3)C2)CC1 [SR 142,801, Osanetant] | inactive

Same assay, conditions: phase II trial; positive symptoms (altered behavior, delusion, hallucinations, extreme emotions, excited motor activity, incoherent speech); cited from earlier work

Row | SMILES | activity on positive symptoms of schizophrenia
2 | CC(=O)N(C)C1(c2ccccc2)CCN(CCC[C@]2(c3ccc(Cl)c(Cl)c3)CCCN(C(=O)c3ccccc3)C2)CC1 [SR 142,801, Osanetant] | active

Target: T2, recombinant human NK3 receptor (Homo sapiens, UniProt P29371)
T2 construct: expressed in transfected cells; host or cells: HEK293 cells, transient expression; membranes
T2 sequence (P29371 1-465): T1 sequence (P29371 1-465)
Experiment: [3H]SR142801 competition binding assay
Conditions: membranes from HEK293 cells transiently expressing recombinant human NK3 receptor; [3H]SR142801 radioligand; read-out: Data Ki (hNK-3 receptor affinity)
Description: [^3H]SR142801 Competition Binding Assay
hNK3 receptor binding experiment were performed using [^3H]SR142801 (Catalog No. TRK1035, specific activity: 74.0 Ci/mmol, Amersham, G E Healthcare UK limited, Buckinghamshire, UK) and membrane isolated from HEK293 cells transiently expressing recombinant human NK3 receptor. After thawing, the membrane homogenates were centrifuged at 48,000×g for 10 min at 4° C., the pellets were resuspended in the 50 mM Tris-HCl, 4 mM MnCl2, 1 μM phosphoramidon, 0.1% BSA binding buffer at pH 7.4 to a final assay concentration of 5 μg protein/well. For inhibition experiments, membranes were incubated with [^3H]SR142801 at a concentration equal to KD value of radioligand and 10 concentrations of the inhibitory compound (0.0003-10 μM) (in a total reaction volume of 500 μl) for 75 min at room temperature (RT). At the end of the incubation, membranes were filtered onto unitfilter (96-well white microplate with bonded GF/C filter preincubated 1 h in 0.3% PEI+0.3% BSA, Packard BioScience, Meriden, Conn.) with a Filtermate 196 harvester (Packard BioScience) and washed 4 times with ice-cold 50 mM Tris-HCl, pH 7.4 buffer. Nonspecific binding was measured in the presence of 10 μM SB222200 for both radioligands. The radioactivity on the filter was counted (5 min) on a Packard Top-count microplate scintillation counter with quenching correction after addition of 45 μl of microscint 40 (Can berra Packard S. A., Zürich, Switzerland) and shaking for 1 h. Inhibition curves were fitted according to the Hill equation: y=100/(1+(x/IC50)^nH), where nH=slope factor using Excel-fit 4 software (Microsoft). IC50 values were derived from the inhibition curve and the affinity constant (Ki) values were calculated using the Cheng-Prussoff equation Ki=IC50/(1+[L]/KD) where [L] is the concentration of radioligand and KD is its dissociation constant at the receptor, derived from the saturation isotherm. All experiments were performed in duplicate and the mean±standard error (SEM) of the individual Ki values was calculated.

Row | SMILES | Ki [nM]
3 | N#Cc1ccccc1N1CCN(C(=O)[C@@H]2C[C@H](n3nnc(-c4ccc(F)cc4F)n3)CN2Cc2cccc(F)c2)CC1 [Example 3, 2-{4-[(2S,4S)-4-[5-(2,4-Difluoro-phenyl)-tetrazol-2-yl]-1-(3-fluoro-benzyl)-pyrrolidine-2-carbonyl]-piperazin-1-yl}-benzonitrile] | 320
4 | N#Cc1ccccc1N1CCN(C(=O)[C@@H]2C[C@H](n3nnc(-c4ccc(F)cc4F)n3)CN2Cc2ccccc2)CC1 [Example 1, 2-(4-{(2S,4S)-1-Benzyl-4-[5-(2,4-difluoro-phenyl)-tetrazol-2-yl]-pyrrolidine-2-carbonyl}-piperazin-1-yl)-benzonitrile] | 84
5 | N#Cc1ccccc1N1CCN(C(=O)[C@@H]2C[C@H](n3nnc(-c4ccc(F)cc4F)n3)CN2Cc2ccccc2Cl)CC1 [Example 5, 2-(4-{(2S,4S)-1-(2-Chloro-benzyl)-4-[5-(2,4-difluoro-phenyl)-tetrazol-2-yl]-pyrrolidine-2-carbonyl}-piperazin-1-yl)-benzonitrile] | 280
6 | N#Cc1ccccc1N1CCN(C(=O)[C@@H]2C[C@H](n3nnc(-c4ccc(F)cc4F)n3)CN2Cc2ccccc2F)CC1 [Example 2, 2-{4-[(2S,4S)-4-[5-(2,4-Difluoro-phenyl)-tetrazol-2-yl]-1-(2-fluoro-benzyl)-pyrrolidine-2-carbonyl]-piperazin-1-yl}-benzonitrile] | 23
7 | N#Cc1ccccc1N1CCN(C(=O)[C@@H]2C[C@H](n3nnc(-c4ccc(F)cc4F)n3)CN2Cc2ccc(F)cc2)CC1 [Example 4, 2-{4-[(2S,4S)-4-[5-(2,4-Difluoro-phenyl)-tetrazol-2-yl]-1-(4-fluoro-benzyl)-pyrrolidine-2-carbonyl]-piperazin-1-yl}-benzonitrile] | 965

The remaining lines, values ahead:

Row | Ki [nM] | SMILES
8 | 696 | N#Cc1ccccc1N1CCN(C(=O)[C@@H]2C[C@H](n3nnc(-c4ccc(F)cc4F)n3)CN2CC2CCCCC2)CC1 [Example 8, 2-(4-{(2S,4S)-1-Cyclohexylmethyl-4-[5-(2,4-difluoro-phenyl)-tetrazol-2-yl]-pyrrolidine-2-carbonyl}-piperazin-1-yl)-benzonitrile]
9 | 387 | N#Cc1ccccc1N1CCN(C(=O)[C@@H]2C[C@H](n3nnc(-c4ccc(F)cc4F)n3)CN2Cc2ccc(F)c(F)c2)CC1 [Example 9, 2-(4-{(2S,4S)-1-(3,4-Difluoro-benzyl)-4-[5-(2,4-difluoro-phenyl)-tetrazol-2-yl]-pyrrolidine-2-carbonyl}-piperazin-1-yl)-benzonitrile]
10 | 295 | N#Cc1ccccc1N1CCN(C(=O)[C@@H]2C[C@H](n3nnc(-c4ccc(F)cc4F)n3)CN2Cc2cccc(Cl)c2)CC1 [Example 6, 2-(4-{(2S,4S)-1-(3-Chloro-benzyl)-4-[5-(2,4-difluoro-phenyl)-tetrazol-2-yl]-pyrrolidine-2-carbonyl}-piperazin-1-yl)-benzonitrile]
11 | 208 | N#Cc1ccccc1N1CCN(C(=O)[C@@H]2C[C@H](n3nnc(-c4ccc(F)cc4F)n3)CN2Cc2ccc(Cl)cc2)CC1 [Example 7, 2-(4-{(2S,4S)-1-(4-Chloro-benzyl)-4-[5-(2,4-difluoro-phenyl)-tetrazol-2-yl]-pyrrolidine-2-carbonyl}-piperazin-1-yl)-benzonitrile]
